In patent US9266876B2 (Actelion Pharmaceuticals Ltd., priority 2012, dated 2016):

Legend:
human CXCR3A = human CXCR3A (Homo sapiens (Human), UniProt P49682); experiment: FLIPR assay; format: cell-based; settings: CHO-K1 cells expressing the human CXCR3A coupled to Galpha(16); CXCL10 agonist 20 nM; Fluo-4-AM fluorescence; mean values if determined several times
In short: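 CHO-K1 cells expressing CXCR3A coupled to Gα16 were loaded with Fluo-4-AM for 1 h in Hepes-buffered HBSS, pH 7.4, with 5 mM probenecid. Compound dilutions were added on the FLIPR, followed by CXCL10 (added as a 20 nM solution). Baseline-subtracted peak fluorescence was fitted to a single-site curve for IC50.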

CXCR3 = CXCR3 (Homo sapiens (Human), UniProt P49682); experiment: Receptor internalization assay; format: cell-based; settings: human whole blood; final CXCL10 concentration 9 nM; 30 min 37° C.; CXCR3 cell surface expression on CD3 positive cells, flow cytometer; read-out: Internalization IC50
CXCR3, sequence (P49682 whole entry): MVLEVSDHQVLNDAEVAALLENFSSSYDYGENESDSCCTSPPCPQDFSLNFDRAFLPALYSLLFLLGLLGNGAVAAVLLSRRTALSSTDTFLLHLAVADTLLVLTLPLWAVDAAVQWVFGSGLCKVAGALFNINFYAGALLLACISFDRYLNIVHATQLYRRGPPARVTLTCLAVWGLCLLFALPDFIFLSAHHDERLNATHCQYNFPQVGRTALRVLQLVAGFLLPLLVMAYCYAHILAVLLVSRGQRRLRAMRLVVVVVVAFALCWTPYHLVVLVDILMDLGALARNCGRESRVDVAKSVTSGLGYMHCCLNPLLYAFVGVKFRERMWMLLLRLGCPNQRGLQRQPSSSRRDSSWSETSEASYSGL
Description: B): Receptor Internalization Assay:
Stock solutions of test compounds are made up at a concentration of 10 mM in DMSO, and serially diluted in PBS containing 0.5% BSA to concentrations required for inhibition dose response curves. Diluted compounds are then mixed with an equal volume of CXCL10 (Peprotech) diluted in PBS. Anticoagulated venous human whole blood is added to the mixture, which is then incubated in a CO2 incubator at 37° C. to allow for ligand mediated receptor internalization (final CXCL10 concentration is 9 nM). After 30′, the blood is mixed with fluorescently labeled CXCR3 and CD3 specific antibodies (Becton Dickinson) and incubated on ice for 10 minutes. Samples are then mixed with BD FACS Lysing Solution (Becton Dickinson) in order to eliminate red blood cells. After washing the cells with PBS containing 0.5% BSA, the samples are then analyzed in a flow cytometer (FACS Canto II, Becton Dickinson). For data analysis using FACSDiva software (Becton Dickinson), the mean fluorescence corresponding to CXCR3 cell surface expression was determined on CD3 positive cells. The program GraphPad Prism is used to fit the data to a single site dose response curve and to calculate IC50 values.

human CXCR3A, sequence (P49682 whole entry): as above

| IC50 (human CXCR3A) | IC50 (CXCR3) | Compound |
| --- | --- | --- |
| 11 nM | 1800 nM | O=C(Cn1cnc2cccnc21)N1CCN(c2scnc2-c2nc3ccccc3[nH]2)CC1 [Example 14, 1-{4-[4-(1H-Benzoimidazol-2-yl)-thiazol-5-yl]-piperazin-1-yl}-2-imidazo[4,5-b]pyridin-3-yl-ethanone] |
| 14 nM | 2420 nM | O=C(Cn1ccc2cccnc21)N1CCN(c2scnc2-c2nc3ccccc3[nH]2)CC1 [Example 15, 1-{4-[4-(1H-Benzoimidazol-2-yl)-thiazol-5-yl]-piperazin-1-yl}-2-pyrrolo[2,3-b]pyridin-1-yl-ethanone] |
| 6 nM | 447 nM | C[C@@H]1CN(c2scnc2-c2nc3ccccc3[nH]2)CCN1C(=O)Cn1cnc2cccnc21 [Example 17, 1-{(R)-4-[4-(1H-Benzoimidazol-2-yl)-thiazol-5-yl]-2-methyl-piperazin-1-yl}-2-imidazo[4,5-b]pyridin-3-yl-ethanone] |
| 1 nM | 2420 nM | CC[C@@H]1CN(c2scnc2-c2nc3ccccc3[nH]2)CCN1C(=O)Cn1ccc2cccnc21 [Example 18, 1-{(R)-4-[4-(1H-Benzoimidazol-2-yl)-thiazol-5-yl]-2-ethyl-piperazin-1-yl}-2-pyrrolo[2,3-b]pyridin-1-yl-ethanone] |
| 25 nM | 875 nM | COC[C@H]1CN(c2scnc2-c2nc3ccccc3[nH]2)CCN1C(=O)Cn1ccc2cccnc21 [Example 19, 1-{(R)-4-[4-(1H-Benzoimidazol-2-yl)-thiazol-5-yl]-2-methoxymethyl-piperazin-1-yl}-2-pyrrolo[2,3-b]pyridin-1-yl-ethanone] |
| 1 nM | 568 nM | Cc1cccc2[nH]c(-c3ncsc3N3CCN(C(=O)Cn4ccc5cccnc54)[C@H](C)C3)nc12 [Example 22, 1-{(R)-2-Methyl-4-[4-(4-methyl-1H-benzoimidazol-2-yl)-thiazol-5-yl]-piperazin-1-yl}-2-pyrrolo[2,3-b]pyridin-1-yl-ethanone] |
| 0.2 nM | 181 nM | C[C@@H]1CN(c2scnc2-c2nc3ccc(Cl)cc3[nH]2)CCN1C(=O)Cn1ccc2cccnc21 [Example 23, 1-{(R)-4-[4-(6-Chloro-1H-benzoimidazol-2-yl)-thiazol-5-yl]-2-methyl-piperazin-1-yl}-2-pyrrolo[2,3-b]pyridin-1-yl-ethanone] |
| 1 nM | 215 nM | C[C@@H]1CN(c2scnc2-c2nc3ccc(C(C)(C)C)cc3[nH]2)CCN1C(=O)Cn1ccc2cccnc21 [Example 24, 1-{(R)-4-[4-(6-tert-Butyl-1H-benzoimidazol-2-yl)-thiazol-5-yl]-2-methyl-piperazin-1-yl}-2-pyrrolo[2,3-b]pyridin-1-yl-ethanone] |
| 3 nM | 3140 nM | C[C@@H]1CN(c2scnc2-c2nc3cc(S(C)(=O)=O)ccc3[nH]2)CCN1C(=O)Cn1ccc2cccnc21 [Example 25, 1-{(R)-4-[4-(5-Methanesulfonyl-1H-benzoimidazol-2-yl)-thiazol-5-yl]-2-methyl-piperazin-1-yl}-2-pyrrolo[2,3-b]pyridin-1-yl-ethanone] |
| 3 nM | 314 nM | Cc1cc2[nH]c(-c3ncsc3N3CCN(C(=O)Cn4ccc5cccnc54)[C@H](C)C3)nc2cc1Cl [Example 27, 1-{(R)-4-[4-(5-Chloro-6-methyl-1H-benzoimidazol-2-yl)-thiazol-5-yl]-2-methyl-piperazin-1-yl}-2-pyrrolo[2,3-b]pyridin-1-yl-ethanone] |
| 2 nM | 566 nM | COc1cccc2nc(-c3ncsc3N3CCN(C(=O)Cn4c(=O)n(C)c5ccccc54)CC3)[nH]c12 [Example 30, 1-(2-{4-[4-(7-Methoxy-1H-benzoimidazol-2-yl)-thiazol-5-yl]-piperazin-1-yl}-2-oxo-ethyl)-3-methyl-1,3-dihydro-benzoimidazol-2-one] |
| 2 nM | 540 nM | Cc1ccc2[nH]c(-c3ncsc3N3CCN(C(=O)Cn4c(=O)n(C)c5ccccc54)CC3)nc2c1 [Example 31, 1-Methyl-3-(2-{4-[4-(5-methyl-1H-benzoimidazol-2-yl)-thiazol-5-yl]-piperazin-1-yl}-2-oxo-ethyl)-1,3-dihydro-benzoimidazol-2-one] |
| 2 nM | 633 nM | Cn1c(=O)n(CC(=O)N2CCN(c3scnc3-c3nc4cc(C(F)(F)F)ccc4[nH]3)CC2)c2ccccc21 [Example 32, 1-Methyl-3-(2-oxo-2-{4-[4-(5-trifluoromethyl-1H-benzoimidazol-2-yl)-thiazol-5-yl]-piperazin-1-yl}-ethyl)-1,3-dihydro-benzoimidazol-2-one] |
| 3 nM | 1510 nM | Cn1c(=O)n(CC(=O)N2CCN(c3scnc3-c3nc4cc(Cl)c(Cl)cc4[nH]3)CC2)c2ccccc21 [Example 35, 1-(2-{4-[4-(5,6-Dichloro-1H-benzoimidazol-2-yl)-thiazol-5-yl]-piperazin-1-yl}-2-oxo-ethyl)-3-methyl-1,3-dihydro-benzoimidazol-2-one] |
| 4 nM | 1490 nM | Cc1c(Cl)ccc2nc(-c3ncsc3N3CCN(C(=O)Cn4c(=O)n(C)c5ccccc54)CC3)[nH]c12 [Example 37, 1-(2-{4-[4-(6-Chloro-7-methyl-1H-benzoimidazol-2-yl)-thiazol-5-yl]-piperazin-1-yl}-2-oxo-ethyl)-3-methyl-1,3-dihydro-benzoimidazol-2-one] |
| 3 nM | 1580 nM | O=C(Cn1ccc2cccnc21)N1CCN(c2sc(Br)nc2-c2nc3ccccc3[nH]2)CC1 [Example 38, 1-{4-[4-(1H-Benzoimidazol-2-yl)-2-bromo-thiazol-5-yl]-piperazin-1-yl}-2-pyrrolo[2,3-b]pyridin-1-yl-ethanone] |
| 15 nM | 5880 nM | CCc1nc(-c2nc3ccccc3[nH]2)c(N2CCN(C(=O)Cn3ccc4cccnc43)CC2)s1 [Example 39, 1-{4-[4-(1H-Benzoimidazol-2-yl)-2-ethyl-thiazol-5-yl]-piperazin-1-yl}-2-pyrrolo[2,3-b]pyridin-1-yl-ethanone] |
| 3 nM | 3900 nM | O=C(Cn1ccc2cccnc21)N1CCCN(c2scnc2-c2nc3ccccc3[nH]2)CC1 [Example 44, 1-{4-[4-(1H-Benzoimidazol-2-yl)-thiazol-5-yl]-[1,4]diazepan-1-yl}-2-pyrrolo[2,3-b]pyridin-1-yl-ethanone] |
| 4 nM | 851 nM | CC[C@@H]1CN(c2scnc2-c2nc3ccccc3[nH]2)CCN1C(=O)Cn1cnc2cccnc21 [Example 49, 1-{(R)-4-[4-(1H-Benzoimidazol-2-yl)-thiazol-5-yl]-2-ethyl-piperazin-1-yl}-2-imidazo[4,5-b]pyridin-3-yl-ethanone] |
| 4 nM | 1660 nM | O=C(Cn1ccc2cc(F)ccc21)N1CCN(c2scnc2-c2nc3ccccc3[nH]2)CC1 [Example 55, 1-{4-[4-(1 H-Benzoimidazol-2-yl)-thiazol-5-yl]-piperazin-1-yl}-2-(5-fluoro-indol-1-yl)-ethanone] |
| 2 nM | 4130 nM | Cc1cccc2ccn(CC(=O)N3CCN(c4scnc4-c4nc5ccccc5[nH]4)CC3)c12 [Example 57, 1-{4-[4-(1H-Benzoimidazol-2-yl)-thiazol-5-yl]-piperazin-1-yl}-2-(7-methyl-indol-1-yl)-ethanone] |
| 8 nM | 1400 nM | O=C(Cn1ccc2c(Cl)cccc21)N1CCN(c2scnc2-c2nc3ccccc3[nH]2)CC1 [Example 60, 1-{4-[4-(1H-Benzoimidazol-2-yl)-thiazol-5-yl]-piperazin-1-yl}-2-(4-chloro-indol-1-yl)-ethanone] |
| 2 nM | 458 nM | N#Cc1cccc2ccn(CC(=O)N3CCN(c4scnc4-c4nc5ccccc5[nH]4)CC3)c12 [Example 61, 1-(2-{4-[4-(1H-Benzoimidazol-2-yl)-thiazol-5-yl]-piperazin-1-yl}-2-oxo-ethyl)-1H-indole-7-carbonitrile] |
| 3 nM | 816 nM | O=C(Cn1ccc2ccc(Cl)nc21)N1CCN(c2scnc2-c2nc3ccccc3[nH]2)CC1 [Example 65, 1-{4-[4-(1H-Benzoimidazol-2-yl)-thiazol-5-yl]-piperazin-1-yl}-2-(6-chloro-pyrrolo[2,3-b]pyridin-1-yl)-ethanone] |
| 8 nM | 749 nM | O=C(CN1C(=O)Cc2ccccc21)N1CCN(c2scnc2-c2nc3ccccc3[nH]2)CC1 [Example 68, 1-(2-{4-[4-(1H-Benzoimidazol-2-yl)-thiazol-5-yl]-piperazin-1-yl}-2-oxo-ethyl)-1,3-dihydro-indol-2-one] |

| Compound | IC50 (human CXCR3A) | IC50 (CXCR3) |
| --- | --- | --- |
| C[C@@H]1CN(c2sc(C(F)(F)F)nc2-c2nc3ccccc3[nH]2)CCN1C(=O)Cn1cnc2cccnc21 [Example 51, 1-{(R)-4-[4-(1H-Benzoimidazol-2-yl)-2-trifluoromethyl-thiazol-5-yl]-2-methyl-piperazin-1-yl}-2-imidazo[4,5-b]pyridin-3-yl-ethanone] | 1 nM | 66 nM |
